Assay results from ChEMBL document CHEMBL3430912, “GSK Tres Cantos Anti-Kinetoplastid Screening (TCAKS) Data”.

What was measured:
Trypanosoma cruzi [1] = test: GSK_TCAKS: pIC50 Trypanosoma cruzi viability assay using beta-GAL activity. This assay was run at single shot at 5uM compound concentration per well. The biological reagents consisted of NIH-3T3 host cells and trypomastigotes parasitic cells; both cell types were set to a 3.3 * 10^5 cells/mL dilution in assay DMEM by means of a CASY cell counter device using a 60um capillary. 6 uL of the mixture were dispensed per well (about 1 * 10^3 host-cells and 1 * 10^3 parasites) with a Multidrop Combi dispenser. […] In all wells, the percentage of DMSO never exceeded 0.5%. Plates incubated for four days at 37C, 5% CO2. The substrate used for the assay fluorescence intensity (FLINT) readout was resorufin-beta-D-galactopiranoside (Sigma-Aldrich) at 5uM per well. It was diluted in PBS supplemented with the soft detergent Igepal (Fluka).; format: functional, organism-based, Mus musculus; conditions: Tulahuen, NIH3T3
Trypanosoma cruzi [2] = test: (§1) GSK_TCAKS: pIC50 Trypanosoma cruzi Imaging: Infected Cells. […] Cells were then washed once with PBS before infection. T. cruzi trypomastigotes, collected at days 5 to 8 after infection from LLC-MK2 parasite infected cultures, were allowed to swim out for 4h at 37C from a centrifuged pellet (2,500 rpm/10 min/room temperature). Trypomastigotes were then collected and counted in a CASY Cell Counter. Trypomastigotes, in supplemented DMEM, were added to H9c2 cultures in a multiplicity of infection of 1 and incubated for 18 h. Cells were washed once with PBS before incubation of the infected H9c2 monolayer with trypsin (Life-Technologies) to detach cells from the flask. Cells were counted in a CASY Cell Counter using a 150 um capillary and their density set at 5 * 10^4 cells per mL in supplemented assay DMEM. Infected H9c2 were dispensed into 384-well poly-lysine coated assay plates at 50uL per well using a Multidrop Combi dispenser. After seeding them, the plates were incubated at 37C, 5% CO2 for 72h. Cultures were then fixed and stained by addition of 50 uL of a solution containing 8% formaldehyde and 4 uM DRAQ5 DNA dye (BioStatus, UK) per well. […] Five images were collected per well for reliable statistical analysis. Automated image analysis was performed with a script developed on Acapella High Content Imaging and Analysis Software (PerkinElmer). Output: percentage of infected cells per well as a second infection marker.; format: functional, organism-based, Rattus norvegicus; conditions: H9c2, 4 h
Trypanosoma cruzi [3] = test: GSK_TCAKS: pIC50 Trypanosoma cruzi Imaging: Amastigotes/Cell. […] Cells were then washed once with PBS before infection. T. cruzi trypomastigotes, collected at days 5 to 8 after infection from LLC-MK2 parasite infected cultures, were allowed to swim out for 4h at 37C from a centrifuged pellet (2,500 rpm/10 min/room temperature). Trypomastigotes were then collected and counted in a CASY Cell Counter. Trypomastigotes, in supplemented DMEM, were added to H9c2 cultures in a multiplicity of infection of 1 and incubated for 18 h. Cells were washed once with PBS before incubation of the infected H9c2 monolayer with trypsin (Life-Technologies) to detach cells from the flask. Cells were counted in a CASY Cell Counter using a 150 um capillary and their density set at 5 * 10^4 cells per mL in supplemented assay DMEM. Infected H9c2 were dispensed into 384-well poly-lysine coated assay plates at 50uL per well using a Multidrop Combi dispenser. After seeding them, the plates were incubated at 37C, 5% CO2 for 72h. Cultures were then fixed and stained by addition of 50 uL of a solution containing 8% formaldehyde and 4 uM DRAQ5 DNA dye (BioStatus, UK) per well. […] Five images were collected per well for reliable statistical analysis. Automated image analysis was performed with a script developed on Acapella High Content Imaging and Analysis Software (PerkinElmer). Output: number of amastigotes per cell as infection level measurement.; format: functional, organism-based, Rattus norvegicus; conditions: H9c2, 4 h
Trypanosoma cruzi [4] = test: as §1, with “H2C9” for “Trypanosoma cruzi”, “H9c2 Host Cardiomyocytes.” for “Infected Cells.”, “Number” for “percentage”, “H9c2 Host Cardiomyocytes nuclei to determine drug-related cytotoxicity.” for “infected cells per well as a second infection marker.”; format: functional, organism-based, Rattus norvegicus; conditions: H9c2, 4 h
Leishmania donovani [5] = test: GSK_TCAKS: pIC50 Leishmania donovani viability assay using fluorescence intensity. Assay plates (1536-well) were prepared by adding 30nL per well of compound. For single shot assay, the final compound concentration was 5uM. […] Briefly, eGFP LdBOB axenic amastigotes were harvested, fixed and counted in a CASY cell counter (Roche-Applied Science). A final concentration of 1.5 * 10^5 cells per well were prepared in amastigote media containing 500 U/mL penicillin/streptomycin (Invitrogen) and 6uL was dispensed to each experimental well using a Multidrop Combi dispenser (Thermo Scientific). 6uL of assay media was dispensed to control columns used as reference for 100% compound response. Following incubation for 72 h at 37C, 5% CO2, 2 uL of resazurin was added to each well at a final concentration of 0.5 mM in phosphate buffered saline (PBS) with IGEPAL (Sigma-Aldrich), 0.05% (v/v).; format: functional, organism-based
Leishmania donovani [6] = test: (§2) GSK_TCAKS: pIC50 Leishmania donovani Imaging: Infected Macrophages. Assay plates (384-well) were prepared by adding 250nL of compound to each well. For single shot assay, the final compound concentration was 5 uM. […] Automated image analysis was performed with a script developed on Acapella High Content Imaging and Analysis Software (PerkinElmer). Output: Percent of infected macrophage cells were reported for each well.; format: functional, organism-based, Homo sapiens; conditions: THP-1
Leishmania donovani [7] = test: as §2, with “Amastigotes/Macrophages.” for “Infected Macrophages.”, “Average number” for “Percent”, “amastigotes per” for “infected”, “cell” for “cells”; format: functional, organism-based, Homo sapiens; conditions: THP-1
Leishmania donovani [8] = test: as §2, with “THP-1 Host” for “Infected”, “THP-1 cell count” for “Percent of infected macrophage cells”; format: functional, organism-based, Homo sapiens
[9] = tested on: Trypanosoma brucei brucei; test: GSK_TCAKS: pIC50 Trypanosoma brucei viability assay using fluorescence intensity. Assay plates (1536-well) were prepared by dispensing 25nL of compound solution per well using an Echo acoustic dispenser (Labcyte).; format: functional, organism-based; conditions: Lister 427, 2 h
[10] = tested on: Trypanosoma brucei brucei; test: GSK_TCAKS: pIC50 Trypanosoma brucei viability assay using luminiscence. Assay plates (1536-well) were prepared. T. brucei cultures were harvested and counted in a CASY cell counter. A parasite suspension was prepared at a final concentration of 5 * 10^4 cells/mL in complete HMI9 medium and 6uL was dispensed to all wells containing compounds using a Multidrop Combi dispenser. 6uL of HMI9 media with 0.4% DMSO were dispensed to control columns. Plates were incubated for 24 h at 37C, 5% CO2 then tempered for 10 min at room temperature. ATP content was quantified by adding 4 uL of CellTiter-Glo Reagent (Promega) according to the manufacturer's instructions. Luminescence was measured using a ViewLux.; format: functional, organism-based; conditions: Lister 427, CASY
[11] = GSK_TCAKS: pIC50 HepG2 human cell line viability assay using luminiscence. […] Seeding density was checked to ensure that new mono-layers were not more than 50% confluent at the time of harvesting. Cell suspension was added to 500 mL of the same medium at a final density of 1.2 * 10^5 cells/mL. This cell suspension was dispensed (25 uL, 3000 cells per well) into 384-well clear-bottom plates using a Multidrop Combi dispenser. Prior to addition of the cell suspension, the screening compounds (250 nL) were pre-dispensed into the plates with an Echo liquid handler. Plates were incubated for 48 h at 37C, 5% CO2. After incubation, plates equilibrated at room temperature for 30 min before proceeding to develop the luminescent signal. The signal developer, CellTiter-Glo Reagent, was allowed to equilibrate at room temperature for 30 min and added to the plates (25uL per well) using a Multidrop Combi dispenser. Plates were left for 10 min at room temperature for stabilization and then read using a ViewLux.; format: toxicity, cell-based
NIH3T3 = test: GSK_TCAKS: pIC50 NIH 3T3 cell line viability assay using luminiscence. Tissue culture surface treated assay plates (1536-well) were used. […] The 100% cells survival control was determined exposing the host-cells to a 0.5% DMSO concentration, whereas the 100% toxicity control was achieved by seeding the cells in presence of Amphotericin B at 50uM. Plates were incubated for four days at 37C, 5% CO2. The assay readout was developed by addition of 5uL of CellTiter-Glo Reagent following the manufacturer's instructions. Luminiscence was measured using a ViewLux.; format: functional, cell-based; conditions: Mus musculus, NIH3T3, 96 h
[12] = target: Sterol 14-alpha demethylase (Trypanosoma cruzi (strain CL Brener), UniProt Q7Z1V1); test: GSK_TCAKS: pIC50 CYP51 from Trypanosoma cruzi.; format: functional
Sequence of Sterol 14-alpha demethylase (Q7Z1V1 whole entry): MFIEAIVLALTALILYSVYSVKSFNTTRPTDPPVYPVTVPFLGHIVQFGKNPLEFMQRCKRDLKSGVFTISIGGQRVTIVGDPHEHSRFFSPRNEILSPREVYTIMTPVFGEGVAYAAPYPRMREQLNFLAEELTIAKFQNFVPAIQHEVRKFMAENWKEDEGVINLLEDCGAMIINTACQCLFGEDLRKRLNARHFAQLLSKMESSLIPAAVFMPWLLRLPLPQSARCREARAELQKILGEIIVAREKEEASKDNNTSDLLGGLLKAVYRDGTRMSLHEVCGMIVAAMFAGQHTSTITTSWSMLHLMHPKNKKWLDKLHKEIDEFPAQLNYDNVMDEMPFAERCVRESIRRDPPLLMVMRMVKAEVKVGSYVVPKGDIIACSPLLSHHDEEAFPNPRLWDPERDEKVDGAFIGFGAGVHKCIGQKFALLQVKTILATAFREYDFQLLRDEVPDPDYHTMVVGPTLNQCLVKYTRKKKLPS

Compound	IC50 (Trypanosoma cruzi [1])	IC50 (Trypanosoma cruzi [2])	IC50 (Trypanosoma cruzi [3])	IC50 (Trypanosoma cruzi [4])	IC50 (Leishmania donovani [5])	IC50 (Leishmania donovani [6])	IC50 (Leishmania donovani [7])	IC50 (Leishmania donovani [8])	IC50 [9]	IC50 [10]	IC50 at 48 h [11]	IC50 (NIH3T3)	IC50 [12]
O=C(COc1ncnc2cc([N+](=O)[O-])ccc12)NC(=O)NC1CCCCC1	1260 nM	1000 nM	501 nM	> 50.1 µM	> 50.1 µM	> 50.1 µM	> 50.1 µM	> 50.1 µM	6.31 µM	> 39.8 µM	> 100 µM	> 50.1 µM	> 100 µM
Cc1cc(N(C)C)nc2ccc(Cc3cnc(N)nc3N)cc12	1260 nM	6310 nM	3160 nM	> 50.1 µM	> 50.1 µM	31.6 µM	39.8 µM	39.8 µM	5.01 µM	5.01 µM	31.6 µM	10 µM	> 100 µM
c1ccc2c(CCOc3nccnc3-c3ccncc3)c[nH]c2c1	141 nM	158 nM	158 nM	> 50.1 µM	5.01 µM	> 50.1 µM	20 µM	20 µM	31.6 µM	39.8 µM	> 100 µM	20 µM	0.0631 µM
O=C(Nc1ccc(Br)c(Cl)c1)Nc1ccc2c(c1)OCO2	2510 nM	5010 nM	2000 nM	> 50.1 µM	> 50.1 µM	> 50.1 µM	> 50.1 µM	> 50.1 µM	7.94 µM	12.6 µM	> 100 µM	15.8 µM	> 100 µM
Clc1cc(Br)ccc1OCCCCn1ccnc1	631 nM	251 nM	316 nM	25.1 µM	0.126 µM	25.1 µM	6.31 µM	31.6 µM	10 µM	20 µM	50.1 µM	15.8 µM	0.0631 µM
COc1cccc(C(=O)[C@H]2C[C@@H]2CN(Cc2cccnc2)Cc2cccnc2)c1	100 nM	63.1 nM	50.1 nM	> 50.1 µM	0.158 µM	> 50.1 µM	7.94 µM	39.8 µM	31.6 µM	> 39.8 µM	> 100 µM	20 µM	0.0631 µM
NC(=O)c1ccc(-c2cccc(OCCN3CCN(C4CCCCC4)CC3)c2)cc1	1580 nM	1580 nM	794 nM	> 50.1 µM	> 50.1 µM	50.1 µM	10 µM	31.6 µM	15.8 µM	15.8 µM	50.1 µM	15.8 µM	39.8 µM
CCCC(=O)N(Cc1ccccn1)c1nc2ccccc2s1	126 nM	100 nM	79.4 nM	> 50.1 µM	7.94 µM	> 50.1 µM	10 µM	> 50.1 µM	20 µM	> 39.8 µM	> 100 µM	> 50.1 µM	0.0501 µM
O=[N+]([O-])c1ccc(C2=NCCNC(c3ccccc3)=C2)cc1.[O-][Cl+3]([O-])([O-])O	501 nM	1000 nM	251 nM	31.6 µM	> 50.1 µM	20 µM	7.94 µM	39.8 µM	6.31 µM	> 12.6 µM	50.1 µM	7.94 µM	50.1 µM
Clc1ccc(Sc2cnccc2N2CCOCC2)cc1	141 nM	126 nM	100 nM	> 50.1 µM	7.94 µM	> 50.1 µM	10 µM	> 50.1 µM	25.1 µM	> 39.8 µM	> 100 µM	> 50.1 µM	0.0316 µM
N#Cc1cc(N2CCCC2=O)ccc1Sc1ccccc1CO	251 nM	398 nM	251 nM	> 50.1 µM	> 50.1 µM	> 50.1 µM	> 50.1 µM	> 50.1 µM	39.8 µM	31.6 µM	> 100 µM	> 50.1 µM	20 µM
Clc1ccc(CN2CCN(C3=NCCN3)CC2)cc1Cl	1260 nM	10000 nM	1000 nM	> 50.1 µM	> 50.1 µM	> 50.1 µM	> 50.1 µM	> 50.1 µM	> 39.8 µM	> 39.8 µM	63.1 µM	39.8 µM	> 100 µM
CCCc1nc2nc(N)nc(N)c2cc1CC	355 nM	316 nM	79.4 nM	12.6 µM	2 µM	39.8 µM	39.8 µM	> 50.1 µM	20 µM	25.1 µM	20 µM	31.6 µM	> 100 µM
N#Cc1c(Oc2cccc(Cl)c2)cccc1[N+](=O)[O-]	316 nM	631 nM	126 nM	15.8 µM	7.94 µM	10 µM	7.94 µM	> 50.1 µM	0.00794 µM	0.00501 µM	25.1 µM	20 µM	> 100 µM
COc1ccccc1-c1c(C)[nH]c2nc(N)nc(C)c12	178 nM	251 nM	126 nM	> 50.1 µM	12.6 µM	25.1 µM	15.8 µM	> 50.1 µM	25.1 µM	> 39.8 µM	> 100 µM	> 50.1 µM	> 100 µM
O=C(NCC1CCCCC1)c1cnns1	2510 nM	3160 nM	2000 nM	> 50.1 µM	12.6 µM	> 50.1 µM	10 µM	> 50.1 µM	1 µM	1.26 µM	39.8 µM	> 50.1 µM	> 100 µM
